Legend:
[1] = system: bean aphid (Aphis fabae Scop.); assay: Bean Aphid Foliage Spray Test; type: in vivo; design: key: A: Excellent control; B: Partial control; C: No control; conditions: 500 parts per million; 24 hour holding period
Procedure: (§1) The compound of EXAMPLE IV was evaluated to determine its pesticidal activity against mites and certain insects, including an aphid, a caterpillar, a beetle and a fly.
(§2) Suspensions of the test compound was prepared by dissolving one gram of compound in 50 milliliters of acetone in which had been dissolved 0.1 gram (10 percent of the weight of compound) of an alkylphenoxy polyethoxyethanol surfactant, as an emulsifying or dispersing agent. The resulting solution was mixed into 150 milliliters of water to give roughly 200 of milliliters of a suspension containing the compound in finely divided form. The thus-prepared stock suspension contained 0.5 percent by weight of test compound. The test concentrations in parts per million by weight employed in the tests described hereinbelow were obtained by appropriate dilutions of the stock suspension with water. The test procedures were as follows.
Adults and nymphal stages of the bean aphid (Aphis fabae Scop.) reared on potted dwarf nasturtium plants at 65°-70° F. and 50-70 percent relative humidity, constituted the test insects. […]
The potted plants (one pot per compound tested) infested with 100-150 aphids, were placed on a revolving turntable and sprayed with 100-110 milliliters of test compound formulation by use of a DeVilbiss spray gun set at 40 psig. air pressure. […] Percent mortality was recorded for various concentration levels. […]

[2] = system: two-spotted mite (Tetranychus urticae Koch); assay: Mite Foliage Spray Test; type: in vivo; design: key: A: Excellent control; B: Partial control; C: No control; conditions: 500 parts per million; six days
Procedure: as §1, §2
Adults and nymphal stages of the two-spotted mite (Tetranychus urticae Koch), reared on Tendergreen bean plants at 80±5 percent relative humidity, were the test organisms. Infested leaves from a stock culture were placed on the primary leaves of two bean plants six to eight inches in height, growing in a two- and-a-half inch clay pot. 150-200 mites, a sufficient number for testing, transferred from the excised leaves to the fresh plants in a period of twenty-four hours. […]

[3] = system: southern armyworm (Prodenia Eridania, (Cram.)); assay: Southern Armyworm Leaf Spray Test; type: in vivo; design: key: A: Excellent control; B: Partial control; C: No control; conditions: 500 parts per million; three days
Procedure: as §1, §2
Larvae of the southern armyworm (Prodenia Eridania, (Cram.), reared on Tendergreen bean plants at a temperature of 80±5° F. and relative humidity of 50±5 percent, constituted the test insects. […]
This application which lasted 25 seconds was sufficient to wet plants to run-off. […] Percent mortality was recorded for various concentration levels. […]

[4] = system: Mexican bean beetle (Epilachna varivestis, Muls.); assay: Mexican Bean Beetle Leaf Spray Test; type: in vivo; design: key: A: Excellent control; B: Partial control; C: No control; conditions: 500 parts per million; three days
Procedure: as §1, §2
Fourth instar larvae of the Mexican bean beetle (Epilachna varivestis, Muls.) reared on Tendergreen bean plants at a temperature of 80±5° and 50±5 percent relative humidity, were the test insects.
The test compound was formulated by diluting the stock suspension with water to give a suspension containing 500 parts of test compound per million parts of final formulation. […]

[5] = system: house flies (Musca domestica, L.); assay: Fly Bait Test; type: in vivo; design: key: A: Excellent control; B: Partial control; C: No control; conditions: 500 parts per million in sugar solution bait; twenty four hours
Procedure: as §1, §2
Four to six day old adult house flies (Musca domestica, L.) reared according to the specifications of the Chemical Specialties Manufacturing Association (Blue Book, McNair-Dorland Co., N.Y., 1954; pages 243-244, 261) under controlled conditions of 80±° F. and 50±5 percent relative humidity, were the test insects. […]

Bean = assay: Phytotoxicity test, Bean; type: in vivo; design: key: 1: no perceptible injury; 2: intermediate degrees of injury based upon the number and extent to which leaves were injured; 3: intermediate degrees of injury based upon the number and extent to which leaves were injured; 4: intermediate degrees of injury based upon the number and extent to which leaves were injured; 5: the plant was dead; conditions: 2500 parts per million; ten days
Procedure: (§3) Experiments were also conducted to determine the phytotoxicity of a representative composition with respect to healthy fresh plants. A solution of the compound prepared as described above to provide a concentration of 2500 parts per million of the test compound. The test plants were sprayed in accordance with the procedure described above for the Mite Foliage Spray Test so as to deliver approximately 100 milliliters of test solution to the leaves of each plant tested. The sprayed plants and controls were set aside for approximately one hour to allow the solutions to dry and were then placed in the greenhouse. After ten days the plants were visually inspected to determine the extent of foliage injury. A rating of 1 indicates no perceptible injury; 5 indicates the plant was dead and ratings of 2, 3 and 4 indicate intermediate degrees of injury based upon the number and extent to which leaves were injured.

Cot. [6] = assay: Phytotoxicity test, Cot. (second column); type: in vivo; design: key: 1: no perceptible injury; 2: intermediate degrees of injury based upon the number and extent to which leaves were injured; 3: intermediate degrees of injury based upon the number and extent to which leaves were injured; 4: intermediate degrees of injury based upon the number and extent to which leaves were injured; 5: the plant was dead; conditions: 2500 parts per million; ten days
Procedure: as §3

Tom. = assay: Phytotoxicity test, Tom.; type: in vivo; design: key: 1: no perceptible injury; 2: intermediate degrees of injury based upon the number and extent to which leaves were injured; 3: intermediate degrees of injury based upon the number and extent to which leaves were injured; 4: intermediate degrees of injury based upon the number and extent to which leaves were injured; 5: the plant was dead; conditions: 2500 parts per million; ten days
Procedure: as §3

Cot. [7] = assay: Phytotoxicity test, Cot. (fourth column); type: in vivo; design: key: 1: no perceptible injury; 2: intermediate degrees of injury based upon the number and extent to which leaves were injured; 3: intermediate degrees of injury based upon the number and extent to which leaves were injured; 4: intermediate degrees of injury based upon the number and extent to which leaves were injured; 5: the plant was dead; conditions: 2500 parts per million; ten days
Procedure: as §3

Soybean = assay: Phytotoxicity test, Soybean; type: in vivo; design: key: 1: no perceptible injury; 2: intermediate degrees of injury based upon the number and extent to which leaves were injured; 3: intermediate degrees of injury based upon the number and extent to which leaves were injured; 4: intermediate degrees of injury based upon the number and extent to which leaves were injured; 5: the plant was dead; conditions: 2500 parts per million; ten days
Procedure: as §3

Water solubility = type: physicochemical; conditions: 25° C.

With `CN(C(=O)C[N+](C)(C)CCOCC[N+](C)(C)CC(=O)N(C)C(=O)Oc1cccc2ccccc12)C(=O)Oc1cccc2ccccc12` [EXAMPLE IV] the “Insecticidal and Miticidal: Aphid” value [1] was “B”, the “Insecticidal and Miticidal: Mite” value [2] was “C” and the “Insecticidal and Miticidal: So. Army Worm” value [3] was “A”. The “Insecticidal and Miticidal: Mexican Bean Beetle” value [4] was “A”, the “Insecticidal and Miticidal: House Fly” value [5] was “A” and the “Herbicidal: Bean” value (Bean) was 2. For the same compound, the “Herbicidal: Cot.” value (Cot. [6]) was 1, the “Herbicidal: Tom.” value (Tom.) was 1 and the “Herbicidal: Cot.” value (Cot. [7]) was 2. For the same compound, the “Herbicidal: Soybean” value (Soybean) was 2, the “% Water Solubility” value (Water solubility) was 20% and the solubility (Water solubility; water) was 200 mg/mL.

Source: patent US4430341A, “Water soluble pesticidal quaternary ammonium salt compounds” (Union Carbide Corporation, priority 1977, dated 1984)
